Source: patent US9820970B2, “Method and agent for the treatment and prophylaxis of diseases caused by (+)RNA-containing viruses” (OBSSCHESTVO S OGRANICHENNOI OTVETSTVENNOSTIYU …, priority 2012, dated 2017)
Where “and” joins values, the source holds several entries; their conditions need not be identical. Equal entries are not always repeated.

Tests used:
dengue fever virus = experiment: Experimental form of dengue fever, virus proliferation in the blood of white mice; format: in vivo; conditions: for Level of virus accumulation in the blood, lg PFU/ml: infected intracerebrally
Procedure: To determine antiviral activity, white mice were infected intracerebrally with a dengue fever virus. […] Infected animals were monitored for 21 days. Biological samples were evaluated on day 5 after infection.

[1] = test system: West Nile virus strain Eg101; experiment: Experimental form of West Nile Fever in white mice; conditions: for Protective ratio, % / Average lifetime / Extension of the average lifetime, Δ: 5 mg/kg orally; for Protective ratio, %: 10LD50 subcutaneously; for Average lifetime / Extension of the average lifetime, Δ: 10LD50
Procedure: In the experiment West Nile virus strain Eg101 was used. Infected animals were monitored for 21 days. Their death was controlled, and the average lifetime of the white mice were calculated in the experimental and control groups.
The main criteria of the in vivo effectiveness were the values of protection of the laboratory animals against death and the average lifetime of the animals in a group.

[2] = test system: human rhinovirus strain (HRV 1B); experiment: Antiviral activity against human rhinovirus on an in vivo experimental model (virus in mouse lungs); set-up: species or system mice; conditions: for Infectious virus titer in lungs, lg, TCID50: orally once daily for 3 days from 12 h after infection; for Suppression of the virus reproduction (Δ lg): orally once daily for 3 days, vs normal saline
[3] = Adverse side effects during long-term administration; conditions: long-term administration in therapeutic doses or doses greater by an order of magnitude
TBE virus strain Sof′ in = test system: TBE virus strain Sof′ in; set-up: species or system white mice; conditions: mouse, in vivo
HCXV virus = experiment: Protective effectiveness against Coxsackie virus (HCXV) infection in mice; format: in vivo, white mice; conditions: for Total mortality rate: 10LD50 intramuscularly
[4] = ribavirin, treatment scheme +24 h to +120 h
[5] = 20 mg/kg, treatment scheme +24 h to +120 h
[6] = 5 mg/kg orally, prevention scheme −96 h to −1 h
[7] = 5 mg/kg orally, treatment scheme +24 h to +168 h
[8] = 30/15 mg/kg, treatment scheme +24 h to +120 h
[9] = prevention scheme −96 h to −1 h
[10] = treatment scheme +24 h to +168 h
[11] = 30 mg/kg, single administration −144 h before infection
[12] = 0.3 mg/kg orally once daily for 5 days from 24 h after infection
[13] = 3 mg/kg orally once daily for 5 days from 24 h after infection
[14] = 30 mg/kg orally once daily for 5 days from 24 h after infection

NC(=O)c1ncn([C@@H]2O[C@H](CO)[C@@H](O)[C@H]2O)n1 [Ribavirin, ribavirin, reference compound]
Degree of inhibition of the virus accumulation, % (dengue fever virus; [4]): 83.4%
Reduction in the level of virus accumulation, lg (dengue fever virus; [4]): 1.0 lg
Level of virus accumulation in the blood, lg PFU/ml (dengue fever virus; [4]): 6.4 lg PFU/ml
Protection against death, % of animals ([1]; 20 mg/kg, prevention scheme): 50%
Average lifetime of animals in a group [1, 5]: 7.2 days
Extension of the average lifetime of animals in a group, Δ [1, 5]: 0.2 days
Protection against death, % [1, 5]: 10.0%

O=C(O)CCCC(=O)NCCc1c[nH]cn1 [Glutaryl histamine, glutaryl histamine]
Infectious virus titer in lungs, lg, TCID50 ([2]; 15 mg/ml, 48 hrs): 2.8 ± 0.4 lg, TCID50
Infectious virus titer in lungs, lg, TCID50 ([2]; 15 mg/ml, 72 hrs): 2.1 ± 0.3 lg, TCID50
Suppression of the virus reproduction (Δ lg) ([2]; 15 mg/ml, 48 hrs): 1.3 Δ lg
Suppression of the virus reproduction (Δ lg) ([2]; 15 mg/ml, 72 hrs): 1.1 Δ lg
Infectious virus titer in lungs, lg, TCID50 ([2]; 30 mg/ml, 48 hrs): 1.5 ± 0.3 lg, TCID50
Infectious virus titer in lungs, lg, TCID50 ([2]; 30 mg/ml, 72 hrs): 1.0 ± 0.3 lg, TCID50
Suppression of the virus reproduction (Δ lg) ([2]; 30 mg/ml, 48 hrs): 2.6 Δ lg
Suppression of the virus reproduction (Δ lg) ([2]; 30 mg/ml, 72 hrs): 2.2 Δ lg
Degree of inhibition of the virus accumulation, % (dengue fever virus; [6]): 95.5%
Reduction in the level of virus accumulation, lg (dengue fever virus; [6]): 1.6 lg
Level of virus accumulation in the blood, lg PFU/ml (dengue fever virus; 5 mg/kg orally, prevention scheme −96 h to −1 h, day 5 after infection): 5.0 lg PFU/ml
Degree of inhibition of the virus accumulation, % (dengue fever virus; [7]): 98.6%
Reduction in the level of virus accumulation, lg (dengue fever virus; [7]): 1.8 lg
Level of virus accumulation in the blood, lg PFU/ml (dengue fever virus; 5 mg/kg orally, treatment scheme +24 h to +168 h, day 5 after infection): 4.8 lg PFU/ml
Degree of inhibition of the virus accumulation, % (dengue fever virus; [8]): 99.6%
Reduction in the level of virus accumulation, lg (dengue fever virus; [8]): 2.6 lg
Level of virus accumulation in the blood, lg PFU/ml (dengue fever virus; [8]): 4.8 lg PFU/ml
Adverse side effects [3]: no adverse side effects have been registered
Protective ratio, % ([1]; prevention scheme −96 h, −72 h, −48 h, −24 h, −1 h): 42.9%
Average lifetime [1, 9]: 11.2 days
Extension of the average lifetime, Δ [1, 9]: 4.2 days
Average lifetime [1, 10]: 9.8 days
Extension of the average lifetime, Δ [1, 10]: 2.8 days
Protective ratio, % [1, 10]: 37.8%
Average lifetime of animals in a group [1, 11]: 10.8 days
Extension of the average lifetime of animals in a group, Δ [1, 11]: 3.7 days
Protection against death, % [1, 11]: 40.0%
Protection against death, % ([1]; 30/15 mg/kg, treatment scheme +24 h, +48 h, +72 h, +96 h, +120 h): 50.0%
Average lifetime of animals in a group [1, 8]: 11.5 days
Extension of the average lifetime of animals in a group, Δ [1, 8]: 4.5 days
Extension of the average lifetime of animals in a group, Δ ([1]; 30/15 mg/kg, treatment scheme +24 h to +120 h, listed as glutaryl histamine): 3.5 days
Average lifetime (TBE virus strain Sof′ in): 15.1 days and 15.4 days and 13.6 days and 10.5 days and 10.1 days
Extension of the average lifetime (TBE virus strain Sof′ in): 3.1 days and 3.2 days
Extension of the average lifetime, Δ (TBE virus strain Sof′ in): 3.9 days and 2.4 days
Protection against death, % (TBE virus strain Sof′ in): 30.0% and 40.0%
Protective ratio, % (TBE virus strain Sof′ in): 40% and 35%
Average lifetime, (%) (HCXV virus; [12]): 24.4%
Extension of the days lifetime, Δ, days (HCXV virus; [12]): +14.4 days
Protective ratio, % average (HCXV virus; [12]): 45.4%
Total mortality rate (HCXV virus; [12]): 42.9
Average lifetime, (%) (HCXV virus; [13]): 21.7%
Extension of the days lifetime, Δ, days (HCXV virus; [13]): +11.7 days
Protective ratio, % average (HCXV virus; [13]): 36.4%
Total mortality rate (HCXV virus; [13]): 50.0
Average lifetime, (%) (HCXV virus; [14]): 19.6%
Extension of the days lifetime, Δ, days (HCXV virus; [14]): +9.6 days
Protective ratio, % average (HCXV virus; [14]): 27.4%
Total mortality rate (HCXV virus; [14]): 57.1
